Assay results reported in patent US4670258A, “Storable prepackaged aqueous solutions of vancomycin” (Vanderbilt University, priority 1984, dated 1987).
Like-named read-outs stand apart in the source and are kept apart here.

How the values were obtained:
[1] = Peptide binding to vancomycin studied by UV spectroscopy
Text: when studied by UV spectroscopy. The binding constants for the other

[2] = no additive, HPLC
Protocol: (§1) Solutions containing vancomycin (1 mmol) and peptide (either 1 mmol or 2 mmol) in a total volume of 2 ml (pH 4.1-4.2) were placed in screw-capped test tubes and heated at 80° C. for 17 hr. At the end of the reaction time aliquots of the reaction mixture were analyzed for vancomycin and its degradation products, CDP-I-Major (CDP-I-M) and CDP-I-minor (CDP-I-m), by HPLC (Harris, Kopecka and Harris (1983), J. Am. Chem. Soc. 105: 6915-6922).

[3] = cited from earlier work
Staphylococcus = conditions: cited from earlier work
physchem = conditions: water, pH 4.15
Protocol: as §1

Protocol for B. subtilis: The protection of antibiotic activity of vancomycin by binding peptide is illustrated by the following experiment. Solutions containing vancomycin (2 mmol) and peptide 4 mmol) in a total volume of 1 ml (pH 4.40) were placed in screw-capped test tubes and heated at 80° C. for 66 h. The residual antibiotic activity was measured by the disc diffusion technique with B. subtilis as the test organism (Coller and Gralnick (1977), J. Clinical Investigation 60: 302-312; Crossley, Rotschafer, Chern, Mead and Zaske (1980), Antimicrob. Agents and Chemother. 17: 654-657).
Vancomycin-peptide solutions were prepared as in the previous experiments and steam sterilized (15 psi) for 30 min. Antibiotic activity was measured as in Example II.

SMILES: CC(=O)N[C@H](C)C(=O)NCCC(=O)O [Ac--D-ala-β-ala]
- measurable binding to vancomycin [1]: does not exhibit any measurable binding

SMILES: CN[C@H](CC(C)C)C(=O)N[C@H]1C(=O)N[C@@H](CC(N)=O)C(=O)N[C@H]2C(=O)N[C@H]3C(=O)N[C@H](C(=O)N[C@H](C(=O)O)c4cc(O)cc(O)c4-c4cc3ccc4O)[C@H](O)c3ccc(c(Cl)c3)Oc3cc2cc(c3O[C@@H]2O[C@H](CO)[C@@H](O)[C@H](O)[C@H]2O[C@H]2C[C@](C)(N)[C@H](O)[C@H](C)O2)Oc2ccc(cc2Cl)[C@H]1O [Vancomycin]
- % Vancomycin remaining (unheated control) [2]: 92%
- % Activity (unheated) (B. subtilis; Table II, disc diffusion): 100%
- % Activity (unheated) (B. subtilis; Table III, disc diffusion): 100%
- % Activity (heated) (B. subtilis; heated 80° C. for 66 h, pH 4.40, disc diffusion): 25%
- % Activity (steam sterilized) (B. subtilis; steam sterilized (15 psi) for 30 min, disc diffusion): 58%
- storage stability in aqueous solution, refrigerated ([3]; refrigeration temperatures (viz. 5° C.)): can be stored for several weeks
- potency and pH change in aqueous solution on storage ([3]; room temperature or prolonged storage under refrigeration): potency is lost and autogenous pH changes occur
- effectiveness against Staphylococcus (Staphylococcus): particularly effective
- remaining at 17 h (physchem): 49%
